# According to patent publication US7470537B2, “Adipose-derived stem cells and lattices” (priority 1999, dated 2008):
# Columns and labels:
# Type in all cases: cell-based, human
# [1] = system: matrix mineralization; assay: Total calcium, spectrophotometric
# Procedure: Cells were washed with PBS (no Ca^2+, no Mg^2+) and harvested in 0.1N HCl. Cells were extracted for a minimum of 4 hours at 4° C. and centrifuged at 1000×g for 5 minutes. Total calcium in the supernatant was determined using Sigma kit #587 and measured at A575 nm. The assay was calibrated using calcium standard solutions. Total protein was determined and the samples were expressed as mM Ca/ug protein. […] Values are expressed as the mean±SD.
# Bone formation in vivo is a complex process involving morphogens, hormones and growth factors. Recent work has questioned the efficacy of synthetic glucocorticoids, like dexamethasone (Dex), in mediating osteogenesis. Glucocorticoids appear to inhibit the action of several osteogenic genes including osteocalcin, CBFA-1 and CNI (as reviewed in Cooper, et al., 1999 J. Endocrinol. 163:159-164). It is well established that bone tissue and osteoprogenitor cells are targets of vitamin D action (Chen, et al., 1983 J. Biol. Chem. 258:4350; Chen, et al., 1979 J. Biol. Chem. 254:7491; Narbaitz, et al., 1983 Calcif. Tiss. Int. 35:177) and this metabolite stimulates both AP activity and CNI synthesis by human bone cell populations (Beresford, et al., 1986 Endo 119:1776-1785). […] AP activity and Ca^2+ accumulation were measured over time using commercial kits and normalized with respect to protein and/or time.
# [2] = system: Alkaline phosphatase; assay: Alkaline phosphatase enzyme activity, spectrophotometric; details: 2 to 3 weeks
# Procedure: Cells were washed with PBS and harvested into PBS/0.1% Triton X-100 (PBS/TX100). AP enzyme activity was assayed using a commercial AP enzyme kit (Sigma) and measured at an absorbance of 405 nm. Total protein in each sample was measured based on the Bradford method (Bradford 1976 Anal. Biochem. 72:248-254) using a BCA Protein Assay Kit (Pierce, Rockford, Ill.). AP activity was expressed a nmol p-nitrophenol produced/minute/ug protein. The assay was calibrated using standard p-nitrophenol solutions. Differentiated MSC and NHOst cells were assayed as positive controls while non-induced PLA cells were assayed as a negative control. Values are expressed as the mean±SD.
# [3] = system: Adipose-derived stem cells; assay: Culture in the presence of 5-azacytidine; details: exposure to 5-azacytidine
# Procedure: Adipose-derived stem cells obtained in accordance with Example 1 were cultured in the presence of 5-azacytidine.
# [4] = system: PLA cells; assay: Micromass culture chondrogenic nodule formation; details: induction medium containing TGFβ1 alone
# Procedure: Chondrogenic differentiation was induced using a micromass culture protocol as previously described with some modifications (Ahrens, P B, et al., 1977 Dev. Biol. 60:69-82; Denker, A E 1995 Differentiation 59:25-34). Ten microliter drops of the PLA cellular suspension were placed in the center of each well of a 24-well tissue culture plate and on chamber slides. The cells were placed in an incubator at 37° C. at 5% CO2 for two hours to allow cell adherence. The pellets were gently overlaid with control medium and incubated overnight. The medium was replaced by chondrogenic medium [DMEM with 1% FBS supplemented with 10 ng/ml TGF-β1 (R&D Systems, Minneapolis, Minn.), 6.25 μg/ml insulin (Sigma), and 6.25 μg/ml transferrin (Sigma)]. The pellets were induced for six days in chondrogenic medium. At day six and thereafter, 50 μg/ml ascorbic acid-2-phosphate (Sigma) was added to the chondrogenic medium mixture. PLA pellets were harvested at days two, seven, and fourteen after initial induction for analysis. […] HFF cells were cultured as above under micromass and monolayer conditions as a negative control.
# In order to assess the relationship of chondrogenic induction to PLA cell, micromass cultures were plated in chondrogenic medium at cell concentrations of 1×10^5, 1×10^6, 2.5×10^6, 5×10^6, 1×10^7, 2×10^7, and 5×10^7 cells per milliliter (cells/ml). […]
compound,measurement,setting,value
"C[C@@H]1C[C@H]2[C@@H]3CCC4=CC(=O)C=C[C@]4(C)[C@@]3(F)[C@@H](O)C[C@]2(C)[C@@]1(O)C(=O)CO [Dex, dexamethasone]",overall increase in matrix mineralization in PLA cells,[1],56 fold
same,AP enzyme induction in MSCs,[2]; MSCs,54.2 fold
same,AP enzyme induction in PLA cells,[2]; PLA cells,17.2 fold
Nc1ncn([C@@H]2O[C@H](CO)[C@@H](O)[C@H]2O)c(=O)n1 [5-azacytidine],myogenic differentiation of adipose-derived stem cells,[3],did not induce myogenic differentiation
"C=C1/C(=C\C=C2/CCC[C@]3(C)[C@@H]([C@H](C)CCCC(C)(C)O)CC[C@@H]23)C[C@@H](O)C[C@@H]1O [VD, 1,25-dihydroxyvitamin D3]",overall increase in matrix mineralization in PLA cells,[1],122 fold
TGFβ1: transforming growth factor-beta 1,nodule formation by PLA cells,[4],PLA nodules formed
